≈ marks a conversion by molar mass, not a printed value.
Molecular target: T1, Cytochrome P450 1B1 (Homo sapiens, UniProt Q16678)
T1 sequence (Q16678 whole entry): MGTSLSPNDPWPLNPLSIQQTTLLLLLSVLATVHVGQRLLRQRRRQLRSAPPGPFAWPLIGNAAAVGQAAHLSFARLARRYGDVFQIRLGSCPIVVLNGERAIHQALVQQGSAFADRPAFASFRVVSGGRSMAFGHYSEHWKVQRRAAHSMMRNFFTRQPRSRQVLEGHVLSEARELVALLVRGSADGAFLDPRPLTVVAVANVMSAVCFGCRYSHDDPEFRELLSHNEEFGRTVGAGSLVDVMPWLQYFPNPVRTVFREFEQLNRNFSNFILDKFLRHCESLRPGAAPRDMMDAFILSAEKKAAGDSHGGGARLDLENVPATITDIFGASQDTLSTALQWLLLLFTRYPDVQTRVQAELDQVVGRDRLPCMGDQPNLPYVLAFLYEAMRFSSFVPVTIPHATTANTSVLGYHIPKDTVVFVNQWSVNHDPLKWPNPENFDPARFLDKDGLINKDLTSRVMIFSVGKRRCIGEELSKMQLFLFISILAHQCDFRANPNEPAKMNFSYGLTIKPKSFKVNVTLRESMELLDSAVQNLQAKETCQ
Assay: Inhibition of recombinant human CYP1B1 using 7-ER as substrate in presence of NADPH by fluorescence based assay
Details: not given; call rule not given here

Row | Structure (SMILES) | IC50 [nM]
1 | O=C1c2cccc3c(Br)ccc(c23)C(=O)N1Cc1ccon1 | 42.3
2 | O=C1c2cccc3c(Br)ccc(c23)C(=O)N1Cc1ncco1 | 31
3 | O=C1c2cccc3c(Br)ccc(c23)C(=O)N1Cc1ncccn1 | 91.7
4 | O=C1c2cccc3c(Br)ccc(c23)C(=O)N1CC1CN(Cc2ccccc2)CCO1 (stereo unspecified) | > 1000
5 | O=C1c2cccc3c(Br)ccc(c23)C(=O)N1Cc1nccs1 | 36.7
6 | O=C1c2cccc3c(Br)ccc(c23)C(=O)N1Cc1ccccn1 | 148
7 | O=C1c2cccc3c(Br)ccc(c23)C(=O)N1Cc1ccncn1 | 22.7
8 | O=C1c2cccc3c(O)ccc(c23)C(=O)N1Cc1cncnc1 | 56.6
9 | CCN1C(=O)c2cccc3c(O)ccc(c23)C1=O | > 1000
10 | O=C1c2cccc3c(Br)ccc(c23)C(=O)N1CCCCc1ccccc1 | 57.3
11 | O=C1c2cccc3c(Br)ccc(c23)C(=O)N1Cc1ccc2ncccc2c1 | 30
12 | Nc1ccc2c3c(cccc13)C(=O)N(Cc1cncnc1)C2=O | 67.1
13 | O=C1c2cccc3c(Br)ccc(c23)C(=O)N1Cc1cnccn1 | 156
14 | CCN1C(=O)c2cccc3cccc(c23)C1=O | 605
15 | O=C1c2cccc3c(Br)ccc(c23)C(=O)N1Cc1c[nH]cn1 | 173
16 | O=C1c2cccc3cccc(c23)C(=O)N1Cc1cncnc1 | 221

Next, values leading:

Row | IC50 [nM] | Structure (SMILES)
17 | 19.2 | O=C1c2cccc3c(Br)ccc(c23)C(=O)N1CC1CC1
18 | 17.6 | O=C1c2cccc3c(Br)ccc(c23)C(=O)N1Cc1cc[nH]n1
19 | 16.8 | O=C1c2cccc3c(Br)ccc(c23)C(=O)N1CCCc1ccccc1
20 | 12 | O=C1c2cccc3c(Br)ccc(c23)C(=O)N1CC1Oc2ccccc2O1
21 | 11.7 | O=C1c2cccc3c(Br)ccc(c23)C(=O)N1CC1CCCC1
22 | 7.99 | O=C1c2cccc3c(Br)ccc(c23)C(=O)N1CC1CCCCC1
23 | 5.63 | CCN1C(=O)c2cccc3c(Br)ccc(c23)C1=O
24 | 5.36 | O=C1c2cccc3c(Br)ccc(c23)C(=O)N1CCc1ccccc1
25 | 5.32 | CCN1C(=O)c2cccc3cc(Br)cc(c23)C1=O
26 | 3.64 | O=C1c2cccc3c(Br)ccc(c23)C(=O)N1CC1CCC1
27 | 3.52 | CCN1C(=O)c2cccc3ccc(Br)c(c23)C1=O
28 | 3.42 | O=C1c2cccc3c(Br)ccc(c23)C(=O)N1Cc1cccs1
29 | 1.95 | O=C1c2cccc3c(Br)ccc(c23)C(=O)N1Cc1ccccc1
30 | 1.81 | O=C1c2cccc3c(Br)ccc(c23)C(=O)N1Cc1cccnc1
31 | 1.42 | O=C1c2cccc3c(Br)ccc(c23)C(=O)N1Cc1ccncc1
32 | 0.39 | O=C1c2cccc3c(Br)ccc(c23)C(=O)N1Cc1ccc[nH]1
33 | 0.21 | O=C1c2cccc3c(Br)ccc(c23)C(=O)N1Cc1cn[nH]c1
34 | 0.04 | O=C1c2cccc3c(Br)ccc(c23)C(=O)N1Cc1cncnc1

Tested on: not listed separately
Assay: Solubility in water by HPLC-UV analysis
Assay type: physicochemical
Details: not given

Row | solubility [µg/mL] | Structure (SMILES)
35 | 262 | Cl.O=C1c2cccc3c(Br)ccc(c23)C(=O)N1Cc1cncnc1
36 | 103 (≈ 340 µM) | CCN1C(=O)c2cccc3c(Br)ccc(c23)C1=O

Tested on: NCI-H460
Assay: Anti-cancer activity of human PTX-resistant NCI-H460 cells incubated for 48 hrs by CCK8 assay
Assay type: functional, cell-based
Details: NCI-H460, 48 h

Row | IC50 [nM] | Structure (SMILES)
37 | 633 | CC(=O)O[C@H]1C(=O)[C@@]2(C)[C@H]([C@H](OC(=O)c3ccccc3)[C@]3(O)C[C@H](OC(=O)[C@H](O)[C@@H](NC(=O)c4ccccc4)c4ccccc4)C(C)=C1C3(C)C)[C@]1(OC(C)=O)CO[C@@H]1C[C@@H]2O [PACLITAXEL]

Molecular target: T1, Cytochrome P450 1B1
Assay: Inhibition of human CYP1B1 over-expressed in CHO cells preincubated for 3 hrs followed media replacement containing estradiol without compound measured after 3 hrs
Assay type: cell-based
Details: not given

Row | IC50 [nM] | Structure (SMILES)
38 | 0.47 | O=C1c2cccc3c(Br)ccc(c23)C(=O)N1Cc1cncnc1

Molecular target: T1, Cytochrome P450 1B1
Assay: Inhibition of recombinant human CYP1B1 using 7-ER as substrate measured after 33 mins in presence of NADPH by fluorescence based assay
Details: 0.55 h

Row | inhibition (INH) | Structure (SMILES)
39 | Not Active | O=C1c2cccc3c(Br)ccc(c23)C(=O)N1Cc1cncnc1

Tested on: HEK-293T
Assay: Cytotoxicity against HEK293T cells expressing AhR/luc incubated for 48 hrs by CCK8 assay
Assay type: toxicity, cell-based
Details: human

Row | Structure (SMILES) | Activity
40 | O=C1c2cccc3c(Br)ccc(c23)C(=O)N1Cc1cncnc1 | Non-Toxic

Molecular target: T1, Cytochrome P450 1B1
Assay: Mixed inhibition of recombinant human CYP1B1 using 7-ER as substrate in presence of NADPH by fluorescence based assay
Details: not given

Row | Ki [nM] | Structure (SMILES)
41 | 0.0217 | O=C1c2cccc3c(Br)ccc(c23)C(=O)N1Cc1cncnc1

From ChEMBL document CHEMBL5550137 (Bioorg Med Chem Lett, 2024)
